Measurements reported in patent publication US8071590B2, “9-substituted-5-carboxy-oxadiazino-quinolone derivatives, their preparation and their application as anti-bacterials” (Vetoquinol SA, priority 2008, dated 2011).
Values after ≈ are worked out from the molar mass of the structure shown.

Columns and labels:
Assay type in all cases: cell-based
[1] = system: Mannheimia haemolytica, susceptible (Man hae s); assay: MIC determination by microdilution in liquid medium; conditions: susceptible strain
[2] = system: Bordetella bronchiseptica (Bor bron); assay: microbe, parasite or virus in culture; conditions: read-out: MIC Bor bron
[3] = system: Escherichia coli (E coli); assay: microbe, parasite or virus in culture; conditions: read-out: MIC E coli
[4] = system: Streptococcus uberis (Str ube); assay: microbe, parasite or virus in culture; conditions: read-out: MIC Str ube
[5] = system: Staphylococcus aureus, susceptible (Sta aur s); assay: microbe, parasite or virus in culture; conditions: read-out: MIC Sta aur s
[6] = system: Staphylococcus aureus, resistant (Sta aur r); assay: microbe, parasite or virus in culture; conditions: read-out: MIC Sta aur r
[7] = system: Mycoplasma bovis (Myc bov); assay: microbe, parasite or virus in culture; conditions: Mycoplasmopsis bovis, read-out: MIC Myc bov
[8] = system: Clostridium perfringens (Clo per); assay: microbe, parasite or virus in culture; conditions: read-out: MIC Clo per
[9] = system: Mannheimia haemolytica, resistant (Man hae r); assay: MIC determination by microdilution in liquid medium; conditions: resistant strain
[10] = system: Pseudomonas aeruginosa, susceptible (Pse aer s); assay: microbe, parasite or virus in culture; conditions: read-out: MIC Pse aer s
[11] = system: Pseudomonas aeruginosa, resistant (Pse aer r); assay: microbe, parasite or virus in culture; conditions: read-out: MIC Pse aer r

| SMILES | MIC [1] [µg/mL] | MIC [2] [µg/mL] | MIC [3] [µg/mL] | MIC [4] [µg/mL] | MIC [5] [µg/mL] | MIC [6] [µg/mL] | MIC [7] [µg/mL] | MIC [8] [µg/mL] | MIC [9] [µg/mL] | MIC [10] [µg/mL] | MIC [11] [µg/mL] |
| --- | --- | --- | --- | --- | --- | --- | --- | --- | --- | --- | --- |
| CN1COc2c(N3CCN(C(=O)c4cccs4)CC3)c(F)cc3c(=O)c(C(=O)O)cn1c23 [Example 4, 8-Fluoro-3-methyl-6-oxo-9-[4-(thiophene-2-carbonyl)-piperazin-1-yl]-2,3-dihydro-6H-1-oxa-3,3a-diaza-phenalene-5-carboxylic acid] | 0.25 (≈ 0.545 µM) | 2 (≈ 4.36 µM) | > 1 | 0.5 (≈ 1.09 µM) | 0.06 (≈ 0.131 µM) | 4 (≈ 8.72 µM) | 0.5 (≈ 1.09 µM) | 0.25 (≈ 0.545 µM) |  |  |  |
| CN1COc2c(N3CCN4CCC[C@H]4C3)c(F)cc3c(=O)c(C(=O)O)cn1c23 [Example 8, 8-Fluoro-9-(S)-hexahydro-pyrrolo[1,2-a]pyrazin-2-yl-3-methyl-6-oxo-2,3-dihydro-6H-1-oxa-3,3a-diaza-phenalene-5-carboxylic acid] | 0.03 (≈ 0.0772 µM) | 0.5 (≈ 1.29 µM) | 0.03 (≈ 0.0772 µM) | 0.5 (≈ 1.29 µM) | 0.25 (≈ 0.644 µM) | 16 (≈ 41.2 µM) | 1 (≈ 2.57 µM) | 0.25 (≈ 0.644 µM) | 8 (≈ 20.6 µM) | 0.5 (≈ 1.29 µM) | 8 (≈ 20.6 µM) |
| CN1COc2c(N3CCN4CCCC4C3)c(F)cc3c(=O)c(C(=O)O)cn1c23 (stereo not shown) [Example 7, 8-Fluoro-9-(hexahydro-pyrrolo[1,2-a]pyrazin-2-yl)-3-methyl-6-oxo-2,3-dihydro-6H-1-oxa-3,3a-diaza-phenalene-5-carboxylic acid] | 0.03 (≈ 0.0772 µM) | 0.5 (≈ 1.29 µM) | 0.06 (≈ 0.154 µM) | 0.5 (≈ 1.29 µM) | 0.25 (≈ 0.644 µM) | 16 (≈ 41.2 µM) | 1 (≈ 2.57 µM) | 0.25 (≈ 0.644 µM) | 4 (≈ 10.3 µM) | 1 (≈ 2.57 µM) | 8 (≈ 20.6 µM) |
| CN1COc2c(N3CCN(C(=O)c4ccco4)CC3)c(F)cc3c(=O)c(C(=O)O)cn1c23 [Example 5, 8-Fluoro-9-[4-(furan-2-carbonyl)-piperazin-1-yl]-3-methyl-6-oxo-Z 3-dihydro-6H-1-oxa-3,3a-diaza-phenalene-5-carboxylic acid] | 0.25 (≈ 0.565 µM) | > 1 | 1 (≈ 2.26 µM) | 1 (≈ 2.26 µM) | 0.06 (≈ 0.136 µM) | 4 (≈ 9.04 µM) | 0.5 (≈ 1.13 µM) | < 0.03 |  | > 1 |  |
| CN1COc2c(N3CCN4CCCCC4C3)c(F)cc3c(=O)c(C(=O)O)cn1c23 (stereo not shown) [Example 6, 8-Fluoro-3-methyl-9-(octahydro-pyrido[1,2-a]pyrazin-2-yl)-6-oxo-2,3-dihydro-6H-1-oxa-3,3a-diaza-phenalene-5-carboxylic acid] | 0.06 (≈ 0.149 µM) | 1 (≈ 2.48 µM) | 0.12 (≈ 0.298 µM) | 1 (≈ 2.48 µM) | 0.25 (≈ 0.621 µM) | 16 (≈ 39.8 µM) | 1 (≈ 2.48 µM) | 0.5 (≈ 1.24 µM) | 16 (≈ 39.8 µM) | 2 (≈ 4.97 µM) | 32 (≈ 79.5 µM) |
| CN1COc2c(N3CCN(C(=O)c4cccn4C)CC3)c(F)cc3c(=O)c(C(=O)O)cn1c23 [Example 1, 8-Fluoro-3-methyl-9-[4-(1-methyl-1H-pyrrole-2-carbonyl)-piperazin-1-yl]-6-oxo-2,3-dihydro-6H-1-oxa-3,3a-diaza-phenalene-5-carboxylic acid] | 1 (≈ 2.2 µM) | > 1 | > 1 | 2 (≈ 4.39 µM) | 0.25 (≈ 0.549 µM) | 16 (≈ 35.1 µM) | 0.5 (≈ 1.1 µM) | 0.5 (≈ 1.1 µM) |  |  |  |
| CN1COc2c(N3CCN(C(=O)c4cscn4)CC3)c(F)cc3c(=O)c(C(=O)O)cn1c23 [Example 2] | 0.25 (≈ 0.544 µM) | > 1 | > 1 | 2 (≈ 4.35 µM) | 0.12 (≈ 0.261 µM) | 8 (≈ 17.4 µM) | 1 (≈ 2.18 µM) | 0.25 (≈ 0.544 µM) |  |  |  |
| Cc1ncsc1C(=O)N1CCN(c2c(F)cc3c(=O)c(C(=O)O)cn4c3c2OCN4C)CC1 [Example 3, 8-Fluoro-3-methyl-9-[4-(4-methyl-thiazole-5-carbonyl)-piperazin-1-yl]-6-oxo-2,3-dihydro-6H-1-oxa-3,3a-diaza-phenalene-5-carboxylic acid] | 0.5 (≈ 1.06 µM) | 2 (≈ 4.22 µM) | > 1 | 1 (≈ 2.11 µM) | 0.25 (≈ 0.528 µM) | 16 (≈ 33.8 µM) | 2 (≈ 4.22 µM) | 0.5 (≈ 1.06 µM) |  |  |  |
| CN1COc2c(N3CCN4CCC[C@@H]4C3)c(F)cc3c(=O)c(C(=O)O)cn1c23 [Example 9, 8-Fluoro-9-(R)-hexahydro-pyrrolo[1,2-a]pyrazin-2-yl-3-methyl-6-oxo-2,3-dihydro-6H-1-oxa-3,3a-diaza-phenalene-5-carboxylic acid] | 0.03 (≈ 0.0772 µM) | 0.25 (≈ 0.644 µM) | 0.03 (≈ 0.0772 µM) | 0.5 (≈ 1.29 µM) | 0.12 (≈ 0.309 µM) | 8 (≈ 20.6 µM) | 0.5 (≈ 1.29 µM) | 0.5 (≈ 1.29 µM) | 4 (≈ 10.3 µM) | 0.5 (≈ 1.29 µM) | 8 (≈ 20.6 µM) |
